Test results published in patent publication US20040029736A1, “Promoting early establishment of potato crops by ethylene inhibitors” (Valent BioSciences Corporation, priority 2002, published 2004).
Read-outs that look alike come from different tables or passages of the source.

Assays:
potato microtubers = settings: potato explants treated during initiation and growth phases of microtuber development; Suttle 1998; cited from earlier work
potato tubers [1] = settings: cited from earlier work; for release from dormancy and sprouting of potato tubers: literature (Alam 1994; Minato 1979; Rama 1981; Rylski 1974)
potato tubers [2] = experiment: Example 4: sprout number and length of potato tubers dipped in AVG or ethephon (Table 4); type: in vivo, Solanum tuberosum Linn; settings: 1000 ppm ethephon dip; for Sprout length (cm) / Sprouts/potato: 20° C., in soil, dark chamber, 21 days after treatment
Procedure: Potato tubers were dipped in 2000 ppm AVG or 1000 ppm ethephon solution and water-dipped potatoes served as the control. Each treatment consisted of 9 potato tubers. The treated potatoes were then put in plastic trays and placed in dark ventilated chamber at 20° C. […]

potato tubers [3] = experiment: Example 5: sprout number and emergence from soil of MCP gas-treated potato tubers at 10° C. (Table 5); type: in vivo, Solanum tuberosum Linn; settings: for number of emerged sprouts per potato tuber: 50 ppm MCP; for % Emergence / Sprouts/Tuber: 50 ppm MCP for 20 hr, in soil
Procedure: Potato tubers were treated with 50 ppm MCP in a closed plastic drum (30 gallon) for 20 hr and untreated potatoes served as the control. Each treatment consisted of 9 potato tubers. The treated potatoes were then planted in soil in plastic trays and placed in a ventilated chamber at 10° C. […]

[4] = Gold Rush, 15 days after treatment
[5] = Gold Rush, 18 days after treatment
[6] = Norkotah, 15 days after treatment
[7] = Norkotah, 18 days after treatment
[8] = Russet Burbank, 15 days after treatment
[9] = Russet Burbank, 18 days after treatment
[10] = Superior, 15 days after treatment
[11] = Superior, 18 days after treatment

Compound: C1=CC2C=CC1C2 [2,5-norbomadiene]
- sprouting of microtubers (potato microtubers): caused precocious sprouting

Compound: C=C [ethylene]
- release from dormancy and sprouting of potato tubers (potato tubers [1]): enhances release from dormancy and increases sprouting
- sprout elongation (potato tubers [1]; literature (Minato 1979; Rylski 1974)): inhibit sprout elongation

Compound: O=P(O)(O)CCCl [ethephon, 2-chloroethyl phosphonic acid]
- release from dormancy and sprouting of potato tubers (potato tubers [1]): enhances release from dormancy and increases sprouting
- sprouting (potato tubers [2]; Russet Burbank and Superior): stimulate sprouting
- sprout elongation (potato tubers [2]; potato tubers): did not
- Sprout length (cm) (potato tubers [2]; Russet Burbank): 15.6 A cm
- Sprouts/potato (potato tubers [2]; Russet Burbank): 10.8 B
- Sprout length (cm) (potato tubers [2]; Superior): 16.8 AB cm
- Sprouts/potato (potato tubers [2]; Superior): 9.9 B

Compound: CC1=CC1 [MCP, 1-methylcyclopropene]
- number of emerged sprouts per potato tuber (potato tubers [3]; Russet Burbank, Norkotah, and Gold Rush): increased
- number of emerged sprouts per potato tuber (potato tubers [3]; Superior): not
- % Emergence (potato tubers [3]; [4]): 44%
- Sprouts/Tuber (potato tubers [3]; [4]): 0.8 B
- % Emergence (potato tubers [3]; [5]): 56%
- Sprouts/Tuber (potato tubers [3]; [5]): 1.3 B
- % Emergence (potato tubers [3]; [6]): 78%
- Sprouts/Tuber (potato tubers [3]; [6]): 1.7 B
- % Emergence (potato tubers [3]; [7]): 78%
- Sprouts/Tuber (potato tubers [3]; [7]): 2.0 B
- % Emergence (potato tubers [3]; [8]): 100%
- Sprouts/Tuber (potato tubers [3]; [8]): 2.4 B
- % Emergence (potato tubers [3]; [9]): 100%
- Sprouts/Tuber (potato tubers [3]; [9]): 2.9 B
- % Emergence (potato tubers [3]; [10]): 89%
- Sprouts/Tuber (potato tubers [3]; [10]): 1.2 A
- % Emergence (potato tubers [3]; [11]): 89%
- Sprouts/Tuber (potato tubers [3]; [11]): 1.6 A

Compound: O=[N+]([O-])[O-].[Ag+] [silver nitrate]
- sprouting of microtubers (potato microtubers): caused precocious sprouting
